From patent US9957236B2, “Selective inhibitors interfering with fibroblast growth factor receptor and FRS2 interaction for the prevention and treatment of cancer and other diseases” (LIMITED LIABILITY COMPANY “RUSSIAN PHARMACEUTICAL …, priority 2014, dated 2018)

What was measured:
[1] = system: HUVEC; assay: Proliferation of endothelial cells HUVEC with FGF-2; assay type: cell-based; conditions: Homo sapiens, FGF-2 25 ng/ml, 96 hours, read-out: Cell growth suppression, IC50
Procedure: Endothelial cells HUVEC were sawn in 96-cavity plates and cultivate for 24 hours. After that, the following was added to the cells: • 1) inhibitor RPT835, or • 2) inhibitor described by Formula IX in this invention, or • 3) brivanib—multi-kinase inhibitor of FGFR/VEGFR, and also to all cells—FGF-2 in a concentration of 25 ng/ml.
The cells were cultivated for 96 hours in general and then were calculated.

[2] = system: collagen-induced arthritis; assay: Collagen-induced arthritis model; assay type: in vivo; conditions: mice, 100 mg/kg through a tube for 40 days
Procedure: Collagen-induced arthritis model was used in the research. Arthritic was induced in mice by intradermal injections of collagen of the II type combined with Freund's adjuvant. The mice were randomized into 2 groups of 5 animals in each one: • group 1: control, water through a tube for 40 days. • group 2: inhibitor described by formula III in this invention, 100 mg/kg, through a tube for 40 days. On the 40 day, the mice were subjected to euthanasia, the tissue was studied.

[3] = molecular target: T1, FRS2 (Homo sapiens, UniProt Q8WU20); assay: FRS2 phosphorylation in FGF-2-stimulated Snu16 cells (Western blotting); assay type: cell-based; design: endogenous in cells; host or cells: Snu16; conditions: FGF-2 stimulation
T1 sequence (Q8WU20 1-508): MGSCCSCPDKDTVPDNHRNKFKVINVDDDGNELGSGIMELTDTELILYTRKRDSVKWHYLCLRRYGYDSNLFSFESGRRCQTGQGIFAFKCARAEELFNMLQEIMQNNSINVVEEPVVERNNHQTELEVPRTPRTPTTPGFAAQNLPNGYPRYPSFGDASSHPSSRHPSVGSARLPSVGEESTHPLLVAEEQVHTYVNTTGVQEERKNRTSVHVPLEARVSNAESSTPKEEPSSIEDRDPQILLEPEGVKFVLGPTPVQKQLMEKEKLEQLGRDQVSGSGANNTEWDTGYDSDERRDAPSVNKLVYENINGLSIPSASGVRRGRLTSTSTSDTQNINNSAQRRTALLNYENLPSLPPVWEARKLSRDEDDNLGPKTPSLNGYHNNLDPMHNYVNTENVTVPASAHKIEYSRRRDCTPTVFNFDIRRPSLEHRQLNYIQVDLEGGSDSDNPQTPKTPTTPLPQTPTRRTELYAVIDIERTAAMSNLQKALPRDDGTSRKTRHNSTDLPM
Procedure: By way of chemical synthesis we received the specified compounds. Stomach cancer cells Snu16 expressing FGFR2 were cultivated according to the standard method. A part of the cells was left for negative control, FGF-2 was added to the other part (positive control). Therapeutic groups included: addition of the inhibitor according to formula V and subsequent stimulation of FGF-2, addition of the inhibitor according to formula IX and subsequent stimulation of FGF-2, addition of the inhibitor according to formula XI and subsequent stimulation of FGF-2. The Western-blotting method was used for assessment of the phosphorylation level of various kinases.

[4] = system: p44/42(MAPK), Akt, mTOR; assay: Western blotting of other kinases in HUVEC, Caki-1, KATO III cells; assay type: cell-based
Procedure: (§1) According to the procedure described above, the phosphorylation levels of type 1-3 fibroblast growth factor receptors, FRS2, and also phosphorylation levels of VEGFR1 and intracellular kinases PI3K, p44/42(MAPK), Akt, mTOR were analyzed by the Western-blotting method.
(§2) Endothelial cells HUVEC, human renal cell carcinoma of Caki-1 type, stomach cancer cells KATO III were used in the research. All the mentioned cells expressed various types of the mentioned receptors. Just like in Example 5, a part of the cells stimulated FGF-2 and/or VEGF-A, a part of the cells was cultivated with the inhibitor described by Formula VIII, a part of the cells left without stimulation and treatment.

[5] = molecular target: T1, FRS2; assay: Western blotting of FRS2 phosphorylation in HUVEC, Caki-1, KATO III cells; assay type: cell-based; design: endogenous in cells; conditions: P=0.001
Procedure: as §1, §2

[6] = molecular target: T2, FGFR3 (Homo sapiens, UniProt P22607); assay: Western blotting of FGFR3 phosphorylation in HUVEC, Caki-1, KATO III cells; assay type: cell-based
T2 construct: endogenous in cells; host or cells: HUVEC, Caki-1, KATO III
Procedure: as §1, §2

[7] = system: PI3K; assay: Western blotting of PI3K phosphorylation in HUVEC, Caki-1, KATO III cells; assay type: cell-based; conditions: P=0.017
Procedure: as §1, §2

[8] = molecular target: T3, VEGFR1 (Homo sapiens, UniProt P17948); assay: Western blotting of VEGFR1 phosphorylation in HUVEC, Caki-1, KATO III cells; assay type: cell-based
T3 construct: endogenous in cells; host or cells: HUVEC, Caki-1, KATO III
Procedure: as §1, §2

[9] = molecular target: T4, FGFR1 (Homo sapiens, UniProt P11362); assay: Western blotting of FGFR1 phosphorylation in HUVEC, Caki-1, KATO III cells; assay type: cell-based
T4 construct: endogenous in cells; host or cells: HUVEC, Caki-1, KATO III
Procedure: as §1, §2

[10] = molecular target: FGFR2 (Homo sapiens, UniProt P21802); assay: Western blotting of FGFR2 phosphorylation in HUVEC, Caki-1, KATO III cells; assay type: cell-based
Procedure: as §1, §2

[11] = system: FGFR2; assay: Automated Western blotting of FGFR2 phosphorylation in Snu16 cells; assay type: cell-based; conditions: 100 mcg/ml, FGF-2 stimulation
Procedure: (§3) Stomach cancer cells Snu16 were sawn in 96-cavity plates with a size of 90 mcl/cavity. After 24 hours of incubation in a damped incubator at a temperature of 37 C, 5% CO2 and 95% air to cells were the tested dissolved agent described by formula VI in the volume of 100 mcg/ml, and then FGF-2 was added as a stimulator.
(§4) After the days of cultivation by the method of automated Western-blotting, the phosphorylation level of the following proteins: FGFR2, FRS2α, FRS2β, Shp2, Grb2 was studied in the cells. After another 24 hours of the cultivation, the cells were counted.

[12] = system: Shp2 and Grb2; assay: Automated Western blotting of Shp2 and Grb2 phosphorylation in Snu16 cells; assay type: cell-based; conditions: noted in some cells
Procedure: as §3, §4

[13] = system: FRS2α and FRS2β; assay: Automated Western blotting of FRS2α and FRS2β phosphorylation in Snu16 cells; assay type: cell-based; conditions: FGF-2 stimulation
Procedure: as §3, §4

[14] = system: Snu16 cells; assay: Proliferation of stomach cancer cells Snu16 (cell count); assay type: cell-based
Procedure: as §3, §4
After the next cultivation the number of the cells equaled between the groups, and also with the control (stimulation of FGF-2, without cultivation with the inhibitor). See the results in Table 1.

[15] = system: angiogenesis in the implants containing VEGF; assay: Matrigel implant angiogenesis stimulated by VEGF; assay type: in vivo; conditions: Matrigel implants in mice; 10 mg/kg intraperitoneally day 0, 3, 6; p<0.001
Procedure: (§5) Eighteen hybrid mice of the 1 generation F1 (C57B1/6×DBA/2), males with a weight of 22-30 g are used in the research. The mice (nomenclature number M02.13.00011) were received from a branch of nursery “Stolbovaya”. The method described earlier was used in the experiment [Passaniti A., 1992]. The control and experiment groups had at least 3 mice. Aliquots (1,000 mcl) of Matrigel (BD Biosciences) containing heparin 60 conventional units/ml, VEGF (200 ng/ml, BD Biosciences) or bFGF (100 ng/ml, BD Biosciences) were prepared on ice. Matrigel containing heparin 60 conventional units/ml was used as negative control. Matrigel was injected in the mice subcutaneously into the side part of the back. After injection, Matrigel quickly forms single, hard gel-like implant. A weight of the inhibitor was dissolved in DMSO to concentration of 10^−2M. Aliquots were frozen down to −20° C. and unfrozen immediately before injection. Refreezing of the solution was not allowed. The tested and standard objects were administered intraperitoneally on the 0, 3 and 6 day of Matrigel impintation: Bevacizumab in a dose of 10 mg/kg and RPT835-15 mg/kg. Seven days after administration of Matrigel, the mice were put into sleep with diethyl ether to remove the implant. The implants were fixed for 24-36 hours in 10% neutral formalin and enclosed in paraffin for further histological research.

[16] = system: angiogenesis stimulated by bFGF; assay: Matrigel implant angiogenesis stimulated by bFGF; assay type: in vivo, mice; conditions: Matrigel implants in mice; intraperitoneally day 0, 3, 6; RPT835 15 mg/kg, Bevacizumab 10 mg/kg
Procedure: as §5

T4 sequence (P11362 22-822): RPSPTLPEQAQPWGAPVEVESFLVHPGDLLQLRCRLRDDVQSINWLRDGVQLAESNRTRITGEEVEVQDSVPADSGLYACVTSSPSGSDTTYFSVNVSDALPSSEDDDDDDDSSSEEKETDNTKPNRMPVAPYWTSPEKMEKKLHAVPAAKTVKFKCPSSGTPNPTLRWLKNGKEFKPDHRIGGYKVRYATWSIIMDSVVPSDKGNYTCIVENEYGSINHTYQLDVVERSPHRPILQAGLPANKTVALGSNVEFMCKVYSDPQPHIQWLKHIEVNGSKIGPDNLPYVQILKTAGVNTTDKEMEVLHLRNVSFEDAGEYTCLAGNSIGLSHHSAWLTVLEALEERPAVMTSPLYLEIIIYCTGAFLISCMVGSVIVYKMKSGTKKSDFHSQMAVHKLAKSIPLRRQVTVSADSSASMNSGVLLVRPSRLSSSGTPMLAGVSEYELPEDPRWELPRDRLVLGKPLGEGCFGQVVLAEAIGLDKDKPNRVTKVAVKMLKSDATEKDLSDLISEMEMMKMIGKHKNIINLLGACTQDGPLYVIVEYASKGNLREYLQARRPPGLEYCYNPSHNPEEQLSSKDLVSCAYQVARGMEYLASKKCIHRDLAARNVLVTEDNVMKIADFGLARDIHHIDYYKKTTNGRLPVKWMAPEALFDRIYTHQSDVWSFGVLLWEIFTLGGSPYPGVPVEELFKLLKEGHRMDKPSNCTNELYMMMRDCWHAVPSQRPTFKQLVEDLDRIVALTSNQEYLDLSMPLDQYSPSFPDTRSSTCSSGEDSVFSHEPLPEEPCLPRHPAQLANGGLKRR
T3 sequence (P17948 27-1338): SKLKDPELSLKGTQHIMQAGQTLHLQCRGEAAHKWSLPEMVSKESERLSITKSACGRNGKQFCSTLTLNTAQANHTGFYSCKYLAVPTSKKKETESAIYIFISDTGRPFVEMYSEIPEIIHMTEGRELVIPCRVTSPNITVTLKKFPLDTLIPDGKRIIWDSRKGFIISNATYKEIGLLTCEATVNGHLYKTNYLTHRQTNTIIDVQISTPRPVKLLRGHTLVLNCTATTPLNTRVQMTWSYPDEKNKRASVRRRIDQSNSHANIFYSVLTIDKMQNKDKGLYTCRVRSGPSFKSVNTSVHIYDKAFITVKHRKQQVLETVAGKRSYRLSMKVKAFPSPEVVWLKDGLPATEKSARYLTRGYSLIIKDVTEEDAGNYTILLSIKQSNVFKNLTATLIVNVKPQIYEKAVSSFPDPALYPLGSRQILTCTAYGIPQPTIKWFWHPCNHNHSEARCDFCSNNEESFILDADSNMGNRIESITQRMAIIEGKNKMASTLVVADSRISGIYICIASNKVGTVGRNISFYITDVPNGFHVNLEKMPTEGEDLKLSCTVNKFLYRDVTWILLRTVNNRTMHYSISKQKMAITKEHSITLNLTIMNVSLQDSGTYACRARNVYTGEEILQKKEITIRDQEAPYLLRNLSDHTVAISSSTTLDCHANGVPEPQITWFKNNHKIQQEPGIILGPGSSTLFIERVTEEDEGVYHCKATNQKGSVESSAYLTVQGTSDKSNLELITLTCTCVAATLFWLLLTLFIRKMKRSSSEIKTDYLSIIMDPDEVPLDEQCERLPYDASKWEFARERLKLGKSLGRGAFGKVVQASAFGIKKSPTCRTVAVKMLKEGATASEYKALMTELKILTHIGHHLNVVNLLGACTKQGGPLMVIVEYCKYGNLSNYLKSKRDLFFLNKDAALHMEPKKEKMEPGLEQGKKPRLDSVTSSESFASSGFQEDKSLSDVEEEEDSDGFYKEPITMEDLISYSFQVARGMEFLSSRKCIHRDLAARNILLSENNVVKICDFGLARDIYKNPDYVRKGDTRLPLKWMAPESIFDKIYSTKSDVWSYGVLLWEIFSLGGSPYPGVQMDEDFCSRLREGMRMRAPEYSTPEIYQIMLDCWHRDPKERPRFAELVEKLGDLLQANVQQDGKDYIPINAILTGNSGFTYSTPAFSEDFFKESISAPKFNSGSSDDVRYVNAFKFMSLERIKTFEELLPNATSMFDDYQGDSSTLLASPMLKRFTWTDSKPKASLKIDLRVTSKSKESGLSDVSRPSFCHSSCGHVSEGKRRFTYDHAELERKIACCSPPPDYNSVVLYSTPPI
Sequence of FGFR2 (Homo sapiens, UniProt P21802) (P21802 22-821, species assumed): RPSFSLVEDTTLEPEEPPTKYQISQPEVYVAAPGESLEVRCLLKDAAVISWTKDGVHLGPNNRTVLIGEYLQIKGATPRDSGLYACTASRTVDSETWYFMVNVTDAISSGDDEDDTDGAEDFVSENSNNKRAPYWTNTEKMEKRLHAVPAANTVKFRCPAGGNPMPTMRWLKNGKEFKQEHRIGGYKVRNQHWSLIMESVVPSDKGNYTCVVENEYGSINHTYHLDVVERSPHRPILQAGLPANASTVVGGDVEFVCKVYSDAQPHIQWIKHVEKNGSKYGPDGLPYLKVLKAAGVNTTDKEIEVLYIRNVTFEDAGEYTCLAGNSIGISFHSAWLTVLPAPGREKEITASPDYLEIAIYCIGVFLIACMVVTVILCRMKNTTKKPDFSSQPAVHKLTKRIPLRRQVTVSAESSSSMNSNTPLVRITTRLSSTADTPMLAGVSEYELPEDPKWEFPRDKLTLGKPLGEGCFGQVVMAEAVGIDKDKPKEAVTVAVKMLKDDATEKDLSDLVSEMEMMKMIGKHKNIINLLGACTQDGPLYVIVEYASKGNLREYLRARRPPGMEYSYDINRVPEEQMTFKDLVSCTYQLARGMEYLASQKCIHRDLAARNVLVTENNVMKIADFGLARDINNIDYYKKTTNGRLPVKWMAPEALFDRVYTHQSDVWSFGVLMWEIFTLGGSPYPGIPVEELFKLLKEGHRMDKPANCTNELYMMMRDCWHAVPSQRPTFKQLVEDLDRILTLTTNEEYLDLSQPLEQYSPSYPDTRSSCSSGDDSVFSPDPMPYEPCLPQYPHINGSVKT
T2 sequence (P22607 23-806): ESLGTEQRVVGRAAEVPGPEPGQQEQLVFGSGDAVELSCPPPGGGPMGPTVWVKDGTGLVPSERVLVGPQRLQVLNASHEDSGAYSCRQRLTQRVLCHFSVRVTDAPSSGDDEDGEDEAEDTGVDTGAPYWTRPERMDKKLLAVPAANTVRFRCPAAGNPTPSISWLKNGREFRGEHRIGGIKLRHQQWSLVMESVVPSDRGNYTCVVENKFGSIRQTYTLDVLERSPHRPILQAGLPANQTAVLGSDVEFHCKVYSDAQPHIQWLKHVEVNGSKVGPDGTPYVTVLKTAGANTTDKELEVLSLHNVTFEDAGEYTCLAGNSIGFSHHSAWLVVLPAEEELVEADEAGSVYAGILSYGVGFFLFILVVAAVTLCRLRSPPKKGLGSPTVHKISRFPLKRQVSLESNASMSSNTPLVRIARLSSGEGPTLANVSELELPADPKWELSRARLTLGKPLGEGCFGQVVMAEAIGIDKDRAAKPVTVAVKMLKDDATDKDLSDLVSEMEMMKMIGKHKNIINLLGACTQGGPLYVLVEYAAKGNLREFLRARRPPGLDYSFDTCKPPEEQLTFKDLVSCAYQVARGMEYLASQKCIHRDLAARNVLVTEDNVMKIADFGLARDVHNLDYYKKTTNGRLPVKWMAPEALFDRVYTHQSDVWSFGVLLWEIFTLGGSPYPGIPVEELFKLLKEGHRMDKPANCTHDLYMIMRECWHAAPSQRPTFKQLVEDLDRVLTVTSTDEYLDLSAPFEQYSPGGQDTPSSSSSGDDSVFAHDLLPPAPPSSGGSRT

Cc1cc2c(F)c(Oc3ncnn4cc(OC[C@@H](C)O)c(C)c34)ccc2[nH]1 [Brivanib, reference compound] showed an IC50 [1] of 289 nM.
With Cc1cc([N+](=O)[O-])c(NS(=O)(=O)c2cccc(C(=O)O)c2)cc1-c1cncnc1 [Inhibitor III, 3-(N-(4-methyl-2-nitro-5-(pyrimidin-5-yl)phenyl)sulfamoyl)benzoic acid] the “tissue findings (infiltration)” value [2] was “Only insignificant infiltration with single neutrophils”.
In the case of CC1C(=O)Nc2ccccc2N1C(=O)c1cccc(C(=O)O)c1 (stereo not drawn) [Inhibitor IX, 3-(2-methyl-3-oxo-1,2,3,4-tetrahydroquinoxalyne-1-carbonyl)benzoic acid], the IC50 [1] is reported as 32 nM and the “transmission of the signal from FGFR to FRS2” value (shortened to “transmission of the signal”) [3] is reported as “interfere with transmission of the signal from FGFR to FRS2”.
With Cc1cc(N)c(NS(=O)(=O)c2cccc(C(=O)O)c2)cc1-c1cncnc1 [Inhibitor V, 3-(N-(2-amino-4-methyl-5-(pyrimidin-5-yl)phenyl)sulfamoyl)benzoic acid] the “transmission of the signal” value [3] was “interfere with transmission of the signal from FGFR to FRS2”.
O=C1CN(C(=O)c2cccc(C(=O)O)c2)c2ccccc2N1 [Inhibitor VIII, 3-(3-oxo-1,2,3,4-tetrahydroquinoxaline-1-carbonyl)benzoic acid] was tested, and the “influence on other kinases” value [4] was “did not have influence on other kinases”, the “decrease of phosphorylation of FRS2” value [5] was 14 times and the “decrease of phosphorylation of FGFR3 (weakly)” value [6] was 1.8 times. The “decrease of phosphorylation of PI3K” value [7] was 10 times, the “decrease of phosphorylation of VEGFR1 (weakly)” value [8] was 2.3 times and the “level of FGFR1 phosphorylation” value [9] was “even increased”. For the same molecule, the “decrease of phosphorylation of FGFR2 (weakly)” value [10] was 1.5 times.
Cc1cc(NNc2cc(C)c(-c3cccnc3)cc2NS(=O)(=O)c2cccc(C(=O)O)c2)c(NS(=O)(=O)c2cccc(C(=O)O)c2)cc1-c1cccnc1 [Inhibitor VI] was tested, and the “phosphorylation of FGFR2” value [11] was “did not suppress”, the “suppression of Shp2 and Grb2 protein phosphorylation” value [12] was “more than 10 times” and the IC50 [13] was under 10 nM. For the same molecule, the “suppression of phosphorylation of FRS2α and FRS2β” value [13] was 12 times, the “proliferation compared with control group” value ([14]; group with phosphorylation suppression of FRS2 and Shp2 and/or Grb2, P < 0.0001) was “suppression,” and the “proliferation compared with control group” value ([14]; group with phosphorylation suppression of FRS2 and without influence on phosphorylation of Shp2 and/or Grb2, P < 0.0001) was “suppression,”.
For O=C(O)c1cccc(Nc2cccc3ncccc23)c1 [Inhibitor XI, 3-(quinoline-5-ylamine)benzoic acid], the “transmission of the signal” value [3] was “interfere with transmission of the signal from FGFR to FRS2”.
For “Bevacizumab: standard object blocking VEGF-stimulated angiogenesis, 10 mg/kg [reference compound]”, the “angiogenesis in the implants containing VEGF” value [15] was “completely blocked” and the “angiogenesis stimulated by bFGF” value [16] was “but not angiogenesis induced by bFGF”.
